The values below come from patent US7550469B2, “Heterocyclic amide derivatives and their use as dopamine D3 receptor ligands” (Aventis Pharmaceuticals Inc., priority 2001, dated 2009).

SMILES strings stand for the structures.

T1 sequence (P35462 whole entry): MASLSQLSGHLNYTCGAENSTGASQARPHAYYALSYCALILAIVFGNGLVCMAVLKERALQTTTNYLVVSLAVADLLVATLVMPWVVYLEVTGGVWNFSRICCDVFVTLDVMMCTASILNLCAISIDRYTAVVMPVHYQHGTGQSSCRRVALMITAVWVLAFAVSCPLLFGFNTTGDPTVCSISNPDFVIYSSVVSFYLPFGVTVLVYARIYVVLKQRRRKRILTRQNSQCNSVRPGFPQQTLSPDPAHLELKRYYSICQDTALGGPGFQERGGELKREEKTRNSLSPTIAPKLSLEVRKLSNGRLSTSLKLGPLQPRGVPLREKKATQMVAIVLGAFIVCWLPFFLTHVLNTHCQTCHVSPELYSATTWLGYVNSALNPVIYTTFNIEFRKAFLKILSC

One assay has as its target T1, cloned human dopamine D3 receptors (Homo sapiens, UniProt P35462).
T1 construct: expressed in transfected cells; membrane homogenate
Nature of the assay: [N-Methyl-3H]Spiroperidol binding to cloned human dopamine D3 receptors (Protocol 1). As to conditions: Table 2; read-out: D3K1. An excerpt:
[N-Methyl-^3H]Spiroperidol Binding to Cloned Human Dopamine D3 Receptors
This assay measures the in vitro activity of compounds on cloned human dopamine (D3) receptors and predicts the direct dopamine-blocking properties of putative neuropsychiatric agents at human dopamine D3 receptors.
The D3 gene was isolated from a human striatal cDNA library (Stratagene). The gene was sequenced and sub-cloned into the expression vector RC/RSV (Invitrogen). CHO (Chinese Hamster Ovary) cells were stably transfected with 10 μg of the D3/RSV plasmid using the DOTAP method from Boehringer Mannheim and 72 clones that were G418 resistant were isolated. Using mRNA and binding displacement data a single high expressing clone was identified. This clone was then grown in large batches for the purpose of developing a 96 well format assay.
• 1. One plate (10 cm) with approximately 2-3 million D3 cells per plate is incubated with 1 ml of Trypsin-EDTA at room temperature for ˜2 min or until cells have lifted off plates. Four ml of Ham's F12+10% Fetal Bovine Serum+1% Penicillin/Streptomycin+G418 (400 μg/ml) medium are added to resuspend cells and 1 ml of this is added to each large plate (15 cm) containing 19 ml of the-same medium as mentioned above. • 2. The 5 large plates are incubated at 37° C.+5% CO2 for ˜3 days or until the cells are confluent. • 3. After these plates are confluent, they are split into 10 large plates. Medium is aspirated off, 2 ml of Trypsin-EDTA are added to each plate and plates are incubated at RT for 2 min or until cells have lifted off the plate. Eight ml of the F12 medium (same medium as #1 above) are added to each plate (10 ml total) to resuspend the cells and 5 ml are transferred to the 2 new plates containing 15 ml of the F12 media. • 4. The 10 large plates are incubated at 37° C.+5% CO2 for ˜2 days or until the cells are confluent. • 5. The 10 large plates are split into 60 large plates (using Trypsin-EDTA as #3 except 4 ml of F12 medium are added to resuspend cells and 1 ml is aliquoted to 6 new plates containing 19 ml of F12 medium each). • 6. Plates are incubated at […]+5% CO2 for ˜3 days or until cell are confluent. • 7. The 60 large plates are then split into 60 roller bottles (100-150 million cells/bottle). Medium is aspirated off, 2 ml of Trypsin-EDTA are added to each plate and incubated at RT for ˜2 minutes or until cells have lifted off plates. Eight ml of F12 medium are added to each plate to resuspend cells and the entire 10 ml are added to 1 roller bottle containing 90 ml of the F12 medium. • 8. The 60 roller bottles are immediately placed on their sides and transferred to the roller bottle incubator. They are incubated at 37° C.+5% CO2 for ˜3-5 days. Cells are spun at 30-40% motor speed in the Forma incubator. • 9. Medium is poured off and cells are washed 2× in PBS. • 10. Cells are then scraped off in 20 ml of PBS and the bottles are rinsed again with 5 ml of PBS to remove any remaining cells. Cells are stored on ice before membrane preparation. • 11. The yield for 60 D3 roller bottles has varied from ˜260-500 mg. • Note: All tissue culture reagents are from Gibco-BRL. C. Membrane Preparation
The cells are harvested into 250 ml centrifuge tubes with 100 volumes of cold phosphate buffered saline (PBS) and spun down (1200×G for 10 min at 4° C.). The medium is removed and 100 ml PBS are added to each centrifuge tube, cells are resuspend and spun down again. The PBS is removed and the final pellet is homogenized in an appropriate volume of 10% DMSO with a polytron on ice at a medium setting.
1. 0.5M Tris Buffer, pH 7.7 • a) 44.4 g Tris HCl 26.5 g Tris Base q.s. to 1 Liter (0.5 M Tris buffer, pH 7.7 at 37° C.) • b) make a 1:10 dilution in distilled H2O (0.05 M. Tris buffer, pH 7.7) 2. Tris Buffer Containing Physiological Salts • a) Stock buffer • NaCl 7.014 g • KCl 0.372 g • CaCl2 0.222 g • MgCl2 0.204 g • q.s. To 100 ml with 0.5 M. Tris Buffer • b) Dilute 1:10 in distilled H2O […]
In the case of `CC1=C(C(=O)NCC(CO)CCN2CCN(c3csc4cc(C(F)(F)F)ccc34)CC2)Cc2ccccc21` (stereo not drawn) [818934ES], the Ki was 218 nM. On the same count and under the same terms, under `O=C(NCC(CO)CCN1CCN(c2csc3cc(C(F)(F)F)ccc23)CC1)c1n[nH]c2ccccc12` (stereo not drawn) [818935ES] stands 244 nM; under `O=C(NCC(CO)CCN1CCN(c2csc3cc(C(F)(F)F)ccc23)CC1)c1ccc2ncccc2c1` (stereo not drawn) [818938ES], 141 nM. On the same count and under the same terms, the result for `O=C(NCC(CO)CCN1CCN(c2csc3cc(C(F)(F)F)ccc23)CC1)c1ccncc1` (stereo not drawn) [818940ES] reads 307 nM.

The assay is the same for the next values; noted with them: the 13th table, unit inferred; read-out: D3Ki.
Take `O=C(NCCCCN1CCCN(c2csc3cc(F)ccc23)CC1)c1cc2ccccc2o1` [822226G]: the Ki was 0.82 nM. On the same count and under the same terms, the result for `Cn1c(C(=O)NCCCCN2CCCN(c3csc4cc(F)ccc34)CC2)cc2ccccc21` [822228G] reads 1.78 nM; that for `O=C(NCCCCN1CCCN(c2csc3cc(C(F)(F)F)ccc23)CC1)c1ccc(-c2ccccc2F)cc1` [S908665], 20.3 nM. In the case of `O=C(NCCCCN1CCCN(c2csc3cc(F)ccc23)CC1)c1cc2ccccc2[nH]1` [S977818], the Ki turned out to be 1.85 nM. Consider `O=C(NCCCCN1CCCN(c2csc3cc(F)ccc23)CC1)c1cc2ccccc2o1` [S977819], for which the Ki was 3.21 nM. On the same count and under the same terms, under `COc1ccc2[nH]c(C(=O)NCCCCN3CCCN(c4csc5cc(F)ccc45)CC3)cc2c1` [S977820] stands 1.05 nM; under `Cn1c(C(=O)NCCCCN2CCCN(c3csc4cc(F)ccc34)CC2)cc2ccccc21` [S977821], 1.65 nM. Regarding `O=C(NCCCCN1CCCN(c2csc3cc(F)ccc23)CC1)c1c[nH]c2ccccc12` [S977822], the Ki stood at 4.12 nM. `O=C(NCCCCN1CCCN(c2csc3cc(F)ccc23)CC1)c1cccc2[nH]ccc12` [S977823]: the Ki was determined as 3.96 nM. Still for that read-out and setting: under `O=C(NCCCCN1CCCN(c2csc3cc(F)ccc23)CC1)c1ccc2[nH]ccc2c1` [S977824] stands 1.14 nM. As to `O=C(NCCCCN1CCCN(c2csc3cc(F)ccc23)CC1)c1ccc2cc[nH]c2c1` [S977825], the Ki amounted to 0.882 nM. Same read-out and setting: the result for `CC1=C(C(=O)NCCCCN2CCCN(c3csc4cc(F)ccc34)CC2)Cc2ccccc21` [S977827] reads 0.987 nM; that for `Cn1cccc1C(=O)NCCCCN1CCCN(c2csc3cc(F)ccc23)CC1` [S977828], 6.97 nM; that for `O=C(NCCCCN1CCCN(c2csc3cc(F)ccc23)CC1)c1ccsc1` [S977829], 4.18 nM. The same measure, in the same setting: the result for `O=C(NCCCCN1CCCN(c2csc3cc(F)ccc23)CC1)c1c[nH]cn1` [S977830] reads 5.8 nM; that for `O=C(NCCCCN1CCCN(c2csc3cc(F)ccc23)CC1)c1ccc2[nH]cnc2c1` [S977831], 1.87 nM; that for `O=C(NCCCCN1CCCN(c2csc3cc(C(F)(F)F)ccc23)CC1)c1cccs1` [S980627], 40 nM. On the same count and under the same terms, under `O=C(NCCCCN1CCCN(c2csc3cc(C(F)(F)F)ccc23)CC1)c1cccc(Cl)c1` [S980628] stands 110 nM; under `O=C(NCCCCN1CCCN(c2csc3cc(C(F)(F)F)ccc23)CC1)c1cccc2ccccc12` [S980631], 100 nM.

For the compound `O=C(NCCCCN1CCCN(c2csc3cc(C(F)(F)F)ccc23)CC1)c1ccc2ccccc2c1` [S980632], the Ki stood at 23 nM. On the same count and under the same terms, under `O=C(NCCCCN1CCCN(c2csc3cc(C(F)(F)F)ccc23)CC1)c1cccc(C(F)(F)F)c1` [S980633] stands 230 nM; under `COc1ccccc1C(=O)NCCCCN1CCCN(c2csc3cc(C(F)(F)F)ccc23)CC1` [S980634], 14 nM. As to `O=C(NCCCCN1CCCN(c2csc3cc(C(F)(F)F)ccc23)CC1)c1cccc(F)c1` [S980635], the Ki came to 71 nM.

`O=C(NCCCCN1CCCN(c2csc3cc(C(F)(F)F)ccc23)CC1)c1cc2ccccc2s1` [S980636]: the Ki was 18 nM. Take `O=C(NCCCCN1CCCN(c2csc3cc(C(F)(F)F)ccc23)CC1)c1ccc(F)cc1` [S980637]: the Ki came out at 43 nM. Same read-out and setting: under `COc1ccc(C(=O)NCCCCN2CCCN(c3csc4cc(C(F)(F)F)ccc34)CC2)cc1OC` [S980638] stands 39 nM; under `Cc1ccccc1C(=O)NCCCCN1CCCN(c2csc3cc(C(F)(F)F)ccc23)CC1` [S980639], 40 nM; under `COc1cccc(C(=O)NCCCCN2CCCN(c3csc4cc(C(F)(F)F)ccc34)CC2)c1` [S980640], 43 nM. Still for that read-out and setting: under `O=C(NCCCCN1CCCN(c2csc3cc(C(F)(F)F)ccc23)CC1)c1ccc(-c2ccccc2)cc1` [S980641] stands 29 nM. Still for that read-out and setting: under `CC(C)(C)c1ccc(C(=O)NCCCCN2CCCN(c3csc4cc(C(F)(F)F)ccc34)CC2)cc1` [S980642] stands 69 nM; under `O=C(NCCCCN1CCCN(c2csc3cc(C(F)(F)F)ccc23)CC1)c1cnc2ccccc2n1` [S980643], 96 nM.

As for `O=C(NCCCCN1CCCN(c2csc3cc(C(F)(F)F)ccc23)CC1)c1ccc(C(F)(F)F)cc1` [S980644], the Ki was determined as 570 nM.

As for `O=C(NCCCCN1CCCN(c2csc3cc(C(F)(F)F)ccc23)CC1)c1ccncc1` [S980645], the Ki worked out at 44 nM. Still for that read-out and setting: the result for `O=C(NCCCCN1CCCN(c2csc3cc(C(F)(F)F)ccc23)CC1)c1cccnc1Cl` [S980646] reads 110 nM.

Take `COc1ccc2cc(C(=O)NCCCCN3CCCN(c4csc5cc(C(F)(F)F)ccc45)CC3)[nH]c2c1` [S980647]: the Ki was found to be 17 nM. Still for that read-out and setting: the result for `Cn1c(C(=O)NCCCCN2CCCN(c3csc4cc(C(F)(F)F)ccc34)CC2)cc2ccccc21` [S980648] reads 35 nM; that for `O=C(NCCCCN1CCCN(c2csc3cc(C(F)(F)F)ccc23)CC1)c1c[nH]c2ccccc12` [S980649], 54 nM; that for `O=C(NCCCCN1CCCN(c2csc3cc(C(F)(F)F)ccc23)CC1)c1cccc2[nH]ccc12` [S980650], 43 nM. Still for that read-out and setting: under `O=C(NCCCCN1CCCN(c2csc3cc(C(F)(F)F)ccc23)CC1)c1ccc2[nH]ccc2c1` [S980651] stands 54 nM; under `O=C(NCCCCN1CCCN(c2csc3cc(C(F)(F)F)ccc23)CC1)c1ccc2cc[nH]c2c1` [S980652], 16.8 nM.

Take `O=C(NCCCCN1CCCN(c2csc3cc(C(F)(F)F)ccc23)CC1)c1n[nH]c2ccccc12` [S980653]: the Ki was determined as 61 nM. Still for that read-out and setting: under `Cn1cccc1C(=O)NCCCCN1CCCN(c2csc3cc(C(F)(F)F)ccc23)CC1` [S980655] stands 40 nM; under `O=C(NCCCCN1CCCN(c2csc3cc(C(F)(F)F)ccc23)CC1)c1ccsc1` [S980656], 28 nM; under `Cc1nn(-c2ccccc2)nc1C(=O)NCCCCN1CCCN(c2csc3cc(C(F)(F)F)ccc23)CC1` [S980657], 175 nM.

With `Cc1ccc(Sc2cc(C(=O)NCCCCN3CCCN(c4csc5cc(C(F)(F)F)ccc45)CC3)ccn2)cc1` [S980659], the Ki turned out to be 110 nM.

In the case of `Cc1nnsc1C(=O)NCCCCN1CCCN(c2csc3cc(C(F)(F)F)ccc23)CC1` [S980660], the Ki stood at 43.8 nM.

Turning to `CSc1nsc(SC)c1C(=O)NCCCCN1CCCN(c2csc3cc(C(F)(F)F)ccc23)CC1` [S980661], the Ki is 151 nM.

For the compound `Cc1oc(-c2ccccc2)cc1C(=O)NCCCCN1CCCN(c2csc3cc(C(F)(F)F)ccc23)CC1` [S980662], the Ki was determined as 48 nM. On the same count and under the same terms, under `Cc1oc(-c2ccc(Cl)cc2)cc1C(=O)NCCCCN1CCCN(c2csc3cc(C(F)(F)F)ccc23)CC1` [S980663] stands 96 nM; under `O=C(NCCCCN1CCCN(c2csc3cc(C(F)(F)F)ccc23)CC1)c1ccc2nonc2c1` [S980664], 6.1 nM.
